Columns and labels:
[1] = tested on: patients with the same disorder (hyperactive child); assay: Pooled SPAS data and monthly follow-up of patients with the same disorder continued on methylphenidate; format: in vivo, human
Procedure: All results obtained from the data are then compared against the results provided by data amassed from a pool of about 200 patients with the same disorder. Of these 200 patients, 55 experienced encouraging results (as did the current patient) and were continued on 40 mg daily treatment. Of these 55 patients, 5 were lost to follow-up, with 50 remaining for prospective evaluation. Because the physician would now choose to continue the patient on 40 mg methylphenidate daily based solely on the isolated SPAS single patient drug trial results, they now take the opportunity of reviewing the pooled data on the 50 patients. This is done to understand under what circumstances this individual patient would likely continue to show benefit from methylphenidate 40 mg treatment, and what conditions lead to treatment failure.
The pool of 50 patients who continued treatment had the following scores following the original SPAS testing:
All 50 patients were followed up by telephone interview monthly for nine months or more, and outcomes were prospectively documented.

[2] = tested on: hyperactive child (Minimum Brain Dysfunction); assay: SPAS single-patient random double-blind crossover trial of methylphenidate versus placebo
Procedure: In this example, the usefulness of methylphenidate (Ritalin) treatment in a hyperactive child (Minimum Brain Dysfunction) is evaluated.
Technology: Consists of instructions, “calendar” packaging for drug and a substantially identical looking placebo to assure appropriate dosing and monitor compliance, questionnaire assessment forms and instructions. […] Results are mailed to the physician and, in this case, parent for use in evaluating the usefulness of the therapy. The physician and parent are contacted, e.g., every three months to provide data on therapies utilized, and perceived outcome, until the condition resolves.
The questionnaire portion of the kit includes an initial consent form for the parent or guardian to complete. The questionnaire also provides background information on the study and possible side effects associated with the medication. Also included therein is a portion for providing relevant patient and family histories. More importantly, the questionnaire, in this case includes a portion for the weekly input by parents or guardian and school observers of answers to questions relating to the drug evaluation. Typical questionnaire sheet for these portions are shown below as Table 1 and Table 2. Physician questionnaires are similarly arranged.
The trial calls for 40 mg daily given at 10 mg four times daily compared to identical appearing placebo given four times daily.

hypertensive person = assay: Six-week random double-blind trial of sustained release verapamil as therapeutic alternative to sustained release propranolol; format: in vivo, human; conditions: verapamil SR 240 mg once daily versus propranolol SR 180 mg once daily; end of six-week trial; statistically insignificant
Procedure: In this example, the validity of using a sustained release formulation of verapamil 240 mg once daily as a therapeutic alternative to sustained release propranolol 180 mg once daily in a hypertensive person is shown. The trial during which the two medications are randomly administered in a double-blind manner is six weeks. The questionnaire used is set up in a manner similar to that described in above examples except that the questions elicit information related to the disease of hypertension. Blood pressure is taken daily by the patient and weekly by the physician. Lab values and vision tests are also reported weekly by the physician. […] Both values are statistically insignificant and the therapeutic alternative selection is objectively validated.

[3] = patients with statistically altered sleep patterns, continued 40 mg daily
[4] = pool of 50 patients, original SPAS testing

Row | Structure (SMILES) | outcome on continued treatment, patients with no statistically altered sleep disturbances ([1]; 40 mg daily, monthly follow-up for nine months or more) | outcome on continued treatment, patients with statistically altered sleep patterns ([1]; 40 mg daily, within two months) | discontinuation from treatment ([1]; all patients with a statistically altered sleep disturbance) | patients who experienced encouraging results and were continued on treatment ([1]; of a pool of about 200 patients, 40 mg daily) [patients] | patients who experienced a grand mal seizure [1, 3] | severe episodes of bizarre behaviors / severe adverse event [1, 3] [%] | Attention Span: patients who had substantial improvement ([1]; pool of 50 patients who continued treatment, original SPAS testing) [% had substantial] | Sleep Patterns: patients not statistically altered [1, 4] [% were not statistically] | Sleep Patterns: patients statistically altered [1, 4] | Teacher Comments: corroborate improved attention span [1, 4] [% corroborate improved] | Teacher Comments: did not corroborate improved attention span [1, 4] [% did not corroborate] | patient's attention span ([2]; 40 mg daily (10 mg four times daily), methylphenidate periods versus placebo periods) | teacher comments ([2]; 40 mg daily, methylphenidate dosing periods) | sleep patterns ([2]; 40 mg daily, methylphenidate periods) | mean diastolic pressure (hypertensive person) | mean systolic blood pressure increase (hypertensive person) [%]
1 | COC(=O)C(c1ccccc1)C1CCCCN1 (stereo not shown) [methylphenidate] | continued to be well maintained on treatment | showed loss of symptom control | had to be discontinued from treatment within two months | 55 | two | 90 | 100 | 50 | 50% were statistically altered | 80 | 20 | improved substantially | corroborate improved attention span | statistically altered | – | –
2 | COc1ccc(CCN(C)CCCC(C#N)(c2ccc(OC)c(OC)c2)C(C)C)cc1OC (stereo not shown) [verapamil] | – | – | – | – | – | – | – | – | – | – | – | – | – | – | essentially stable | 3

Reference: patent publication US6579888B2, “Method and kit for treating illnesses” (Opt-e-scrip, Inc., priority 1994, dated 2003)
